In patent publication US9718828B2 (MERCK SHARP & DOHME CORP., priority 2011, dated 2017):
Counter-ions that a name gives are not always drawn.

Experiments:
[1] = molecular target: T1, hBTK (full-length BTK, 6HIS-tag cleaved) (Homo sapiens (Human), UniProt Q06187); assay: BTK enzymatic activity, IMAP-FP assay (Assay Method B); type: biochemical
Method: BTK enzymatic activity was determined in an IMAP-FP assay (Immobilized Metal ion Affinity-based fluorescence Polarization; Molecular Devices). […] Phosphorylation reactions were allowed to proceed for 120 minutes and were immediately quenched by the addition of 40 μL IMAP detection beads resuspended in IMAP progressive binding buffer (beads were diluted 1:600 in 75% and 25% progressive binding buffer A and B, respectively; Molecular Devices). Plates were read on Packard microplate reader after 60 minutes binding equilibration using Fluorescence Polarization protocol.

[2] = molecular target: T1, hBTK (full-length BTK, 6HIS-tag cleaved); assay: BTK enzymatic activity, LANCE TR-FRET assay (Assay Method C); type: biochemical; conditions: LANCE TR-FRET, 50 pM hBTK, 25 μM ATP; class 100-1000 is given as ≧100 nM-<1 μM; read-out: IC50 Btk activity values - Assay Method C
[3] = IMAP-FP, 1.05 nM hBTK, 5 μM ATP, class 100-1000 is given as ≧100 nM-<1 μM, read-out: IC50 Btk activity values - Assay Method B

T1 sequence (Q06187 whole entry): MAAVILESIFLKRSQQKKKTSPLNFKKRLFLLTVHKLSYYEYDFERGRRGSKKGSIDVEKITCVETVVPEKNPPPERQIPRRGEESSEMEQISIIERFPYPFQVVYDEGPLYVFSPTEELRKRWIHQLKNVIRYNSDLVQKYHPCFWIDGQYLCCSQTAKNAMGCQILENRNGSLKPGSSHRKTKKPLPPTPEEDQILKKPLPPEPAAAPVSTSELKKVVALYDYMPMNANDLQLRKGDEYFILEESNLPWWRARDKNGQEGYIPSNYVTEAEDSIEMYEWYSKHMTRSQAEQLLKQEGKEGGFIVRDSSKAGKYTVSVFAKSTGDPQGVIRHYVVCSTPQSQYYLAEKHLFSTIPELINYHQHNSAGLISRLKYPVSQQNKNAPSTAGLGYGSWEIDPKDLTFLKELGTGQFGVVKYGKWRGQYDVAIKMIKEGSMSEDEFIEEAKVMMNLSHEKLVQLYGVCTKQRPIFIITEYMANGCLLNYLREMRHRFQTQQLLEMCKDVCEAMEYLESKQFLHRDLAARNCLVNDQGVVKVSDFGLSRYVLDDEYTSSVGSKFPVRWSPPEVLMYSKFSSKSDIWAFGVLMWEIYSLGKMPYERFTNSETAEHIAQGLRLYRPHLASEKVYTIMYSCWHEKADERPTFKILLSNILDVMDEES

IC50 [1, 3] [nM] | IC50 [2] [nM] | Compound | further results
100 to 1000 |  | C[C@@H]1CC[C@@H](c2nc(-c3ccc(C(=O)Nc4cc(C(F)(F)F)ccn4)cc3)c3c(N)nccn23)CN1C(=O)C1(C)COC1 [Example 405, 4-(8-amino-3-{(3R,6R)-6-methyl-1-[(3-methyloxetan-3-yl)carbonyl]piperidin-3-yl}imidazo[1,5-a]pyrazin-1-yl)-N-[4-(trifluoromethyl)pyridin-2-yl]benzamide] | 
< 10 |  | COc1cc(C(=O)Nc2cc(C(F)(F)F)ccn2)ccc1-c1nc([C@@H]2CC[C@H](C)N(C(=O)C3(C)COC3)C2)n2ccnc(N)c12 [Example 401, 4-(8-amino-3-{(3R,6S)-6-methyl-1-[(3-methyloxetan-3-yl)carbonyl]piperidin-3-yl}imidazo[1,5-a]pyrazin-1-yl)-3-methoxy-N-[4-(trifluoromethyl)pyridin-2-yl]benzamide] | 
100 to 1000 |  | C[C@@H]1CCN(C(=O)C2(C)COC2)C[C@@H]1c1nc(-c2ccc(C(=O)Nc3cc(C(F)(F)F)ccn3)cc2)c2c(N)nccn12 [Example 377, 4-(8-amino-3-{(3R,4R)-4-methyl-1-[(3-methyloxetan-3-yl)carbonyl]piperidin-3-yl}imidazo[1,5-a]pyrazin-1-yl)-N-[4-(trifluoromethyl)pyridin-2-yl]benzamide] | 
< 10 |  | CC1(C(=O)N2C[C@H](c3nc(-c4ccc(C(=O)Nc5cc(C(F)(F)F)ccn5)cc4)c4c(N)nccn34)CC(F)(F)C2)COC1 (stereo in doubt) [Example 376, 4-(8-amino-3-{5,5-difluoro-1-[(3-methyloxetan-3-yl)carbonyl]piperidin-3-yl}imidazo[1,5-a]pyrazin-1-yl)-N-[4-(trifluoromethyl)pyridin-2-yl]benzamide] | 
100 to 1000 |  | Cn1cc(CN2CCN[C@@H](c3nc(-c4ccc(C(=O)Nc5cc(C(F)(F)F)ccn5)cc4)c4c(N)nccn34)C2)cn1 [Example 566, 4-(8-amino-3-{(2R)-4-[(1-methyl-1H-pyrazol-4-yl)methyl]piperazin-2-yl}imidazo[1,5-a]pyrazin-1-yl)-N-[4-(trifluoromethyl)pyridin-2-yl]benzamide] | 
10 to 100 |  | C[C@H]1CCN(C(=O)C2(C)COC2)C[C@@H]1c1nc(-c2ccc(C(=O)Nc3cc(C(F)(F)F)ccn3)cc2)c2c(N)nccn12 [Example 378, 4-(8-amino-3-{(3R,4S)-4-methyl-1-[(3-methyloxetan-3-yl)carbonyl]piperidin-3-yl}imidazo[1,5-a]pyrazin-1-yl)-N-[4-(trifluoromethyl)pyridin-2-yl]benzamide] | 
 |  | CCc1ccnc(NC(=O)c2ccc(-c3cn([C@@H]4CCCN(C(=O)C5(C)COC5)C4)c4ncnc(N)c34)cc2)c1 [Example 391, 4-(4-amino-7-{(3R)-1-[(3-methyloxetan-3-yl)carbonyl]piperidin-3-yl}-7H-pyrrolo[2,3-d]pyrimidin-5-yl)-N-(4-ethylpyridin-2-yl)benzamide] | IC50 [1]: 10 to 100 nM
 |  | CC1(C(=O)N2CCN[C@@H](c3nc(-c4ccc(C(=O)Nc5cc(C(F)(F)F)ccn5)cc4)c4c(N)nccn34)C2)CC1 [Example 567, 4-(8-amino-3-{(2R)-4-[(1-methylcyclopropyl)carbonyl]piperazin-2-yl}imidazo[1,5-a]pyrazin-1-yl)-N-[4-(trifluoromethyl)pyridin-2-yl]benzamide] | IC50 ([1]; IMAP-FP, 1.05 nM hBTK, 5 μM ATP, read-out: IC50 Btk activity values - Assay Method B): ≥ 1000 nM
10 to 100 |  | COCCC(=O)N1CCC[C@@H](c2nc(-c3ccc(C(=O)Nc4ccccn4)cc3O)c3c(N)nccn23)C1 [Example 475, 4-{8-amino-3-[(3R)-1-(3-methoxypropanoyl)piperidin-3-yl]imidazo[1,5-a]pyrazin-1-yl}-3-hydroxy-N-pyridin-2-ylbenzamide] | 
10 to 100 |  | Cc1cc(-c2nc([C@@H]3CCCN(C(=O)C4(C)COC4)C3)n3ccnc(N)c23)ccc1C(=O)Nc1cc(C(F)(F)F)ccn1 [Example 474, 4-(8-amino-3-{(3R)-1-[(3-methyloxetan-3-yl)carbonyl]piperidin-3-yl}imidazo[1,5-a]pyrazin-1-yl)-2-methyl-N-[4-(trifluoromethyl)pyridin-2-yl]benzamide] | 
< 10 |  | Nc1ncc(Br)n2c([C@@H]3CCCN(C(=O)C4CC4)C3)nc(-c3ccc(C(=O)Nc4cc(C(F)(F)F)ccn4)cc3)c12 [Example 577, (R)-4-(8-amino-5-bromo-3-(1-(cyclopropanecarbonyl)piperidin-3-yl)imidazo[1,5-a]pyrazin-1-yl)-N-(4-(trifluoromethyl)pyridin-2-yl)benzamide] | 
10 to 100 |  | C[C@H]1CC[C@H](c2nc(-c3ccc(C(=O)Nc4cc(C(F)(F)F)ccn4)cc3)c3c(N)nccn23)CN1C(=O)C1(C)COC1 [Example 407, 4-(8-amino-3-{(3S,6S)-6-methyl-1-[(3-methyloxetan-3-yl)carbonyl]piperidin-3-yl}imidazo[1,5-a]pyrazin-1-yl)-N-[4-(trifluoromethyl)pyridin-2-yl]benzamide] | 
 | < 10 | COCC1(C(=O)N2CCC[C@@H](c3nc(-c4ccc(C(=O)Nc5cc(C(F)(F)F)ccn5)cc4)c4c(N)nccn34)C2)CC1 [Example 334, 4-{8-amino-3-[(3R)-1-{[1-(methoxymethyl)cyclopropyl]carbonyl}piperidin-3-yl]imidazo[1,5-a]pyrazin-1-yl}-N-[4-(trifluoromethyl)pyridin-2-yl]benzamide] | 
 | < 10 | C[C@H](O)C(=O)N1CCO[C@@H](c2nc(-c3ccc(C(=O)Nc4cc(C(F)(F)F)ccn4)cc3)c3c(N)nccn23)C1 [Example 519, 4-(8-amino-3-{(2R)-4-[(2S)-2-hydroxypropanoyl]morpholin-2-yl}imidazo[1,5-a]pyrazin-1-yl)-N-[4-(trifluoromethyl)pyridin-2-yl]benzamide] | 
 | < 10 | Nc1nccn2c([C@@H]3CCCN(C(=O)CC(F)(F)F)C3)nc(-c3ccc(C(=O)Nc4cc(C(F)(F)F)ccn4)cc3)c12 [Example 332, 4-{8-amino-3-[(3R)-1-(3,3,3-trifluoropropanoyl)piperidin-3-yl]imidazo[1,5-a]pyrazin-1-yl}-N-[4-(trifluoromethyl)pyridin-2-yl]benzamide] | 
 | < 10 | CCOCC(=O)N1CCO[C@@H](c2nc(-c3ccc(C(=O)Nc4cc(C(F)(F)F)ccn4)cc3)c3c(N)ncc(C)n23)C1 [Example 537, 4-{8-amino-3-[(2R)-4-(ethoxyacetyl)morpholin-2-yl]-5-methylimidazo[1,5-a]pyrazin-1-yl}-N-[4-(trifluoromethyl)pyridin-2-yl]benzamide, TFA salt] | 
 | < 10 | COCc1cnc(N)c2c(-c3ccc(C(=O)Nc4cc(C(F)(F)F)ccn4)cc3F)nc([C@@H]3CCCN(C(=O)C4(C)COC4)C3)n12 [Example 451, 4-[8-amino-5-(methoxymethyl)-3-{(3R)-1-[(3-methyloxetan-3-yl)carbonyl]piperidin-3-yl}imidazo[1,5-a]pyrazin-1-yl]-3-fluoro-N-[4-(trifluoromethyl)pyridin-2-yl]benzamide] | 
 | < 10 | COCC(=O)N1CCO[C@@H](c2nc(-c3ccc(C(=O)Nc4cc(C(F)(F)F)ccn4)cc3F)c3c(N)nccn23)C1 [Example 551, 4-{8-amino-3-[(2R)-4-(methoxyacetyl)morpholin-2-yl]imidazo[1,5-a]pyrazin-1-yl}-3-fluoro-N-[4-(trifluoromethyl)pyridin-2-yl]benzamide, TFA salt] | 
 | < 10 | Cn1ncc2c1CCC[C@H]2n1nc(-c2ccc(C(=O)Nc3cc(C(F)(F)F)ccn3)cc2)c2c(N)ncnc21 [Example 552, 4-{4-amino-1-[(4R)-1-methyl-4,5,6,7-tetrahydro-1H-indazol-4-yl]-1H-pyrazolo[3,4-d]pyrimidin-3-yl}-N-[4-(trifluoromethyl)pyridin-2-yl]benzamide, TFA salt] | 
 | < 10 | Cc1cnc(N)c2c(-c3ccc(C(=O)Nc4cc(C(F)(F)F)ccn4)cc3)nc([C@H]3CN(C(=O)[C@H](C)O)CCO3)n12 [Example 543, 4-(8-amino-3-{(2R)-4-[(2S)-2-hydroxypropanoyl]morpholin-2-yl}-5-methylimidazo[1,5-a]pyrazin-1-yl)-N-[4-(trifluoromethyl)pyridin-2-yl]benzamide, TFA salt] | 
 | < 10 | Nc1ncc(Cl)n2c([C@H]3CN(C(=O)C4(O)CC4)CCO3)nc(-c3ccc(C(=O)Nc4cc(C(F)(F)F)ccn4)cc3)c12 [Example 525, 4-(8-amino-5-chloro-3-{(2R)-4-[(1-hydroxycyclopropyl)carbonyl]morpholin-2-yl}imidazo[1,5-a]pyrazin-1-yl)-N-[4-(trifluoromethyl)pyridin-2-yl]benzamide] | 
 | < 10 | CCN1C[C@@H](c2nc(-c3ccc(C(=O)Nc4ccccn4)cc3)c3c(N)nccn23)CC[C@@H]1C(F)(F)F [Example 408, 4-{8-amino-3-[(3S,6R)-1-ethyl-6-(trifluoromethyl)piperidin-3-yl]imidazo[1,5-a]pyrazin-1-yl}-N-pyridin-2-ylbenzamide] | 
 | < 10 | CC1(C(=O)N2CCC[C@@H](c3nc(-c4ccc(C(=O)Nc5cc(C(F)(F)F)ccn5)cc4)c4c(N)ncc(C(F)(F)F)n34)C2)COC1 [Example 470, 4-[8-amino-3-{(3R)-1-[(3-methyloxetan-3-yl)carbonyl]piperidin-3-yl}-5-(trifluoromethyl)imidazo[1,5-a]pyrazin-1-yl]-N-[4-(trifluoromethyl)pyridin-2-yl]benzamide] | 
 | < 10 | COCCN1CCO[C@@H](c2nc(-c3ccc(C(=O)Nc4cc(C(F)(F)F)ccn4)cc3)c3c(N)ncc(C)n23)C1 [Example 539, 4-{8-amino-3-[(2R)-4-(2-methoxyethyl)morpholin-2-yl]-5-methylimidazo[1,5-a]pyrazin-1-yl}-N-[4-(trifluoromethyl)pyridin-2-yl]benzamide, TFA salt] | 
